In patent US20080262064A1, “Novel Compounds For The Treatment Of GI Disorders 682” (ASTRAZENECA AB, priority 2007, published 2008) one finds IC50 and EC50 data, which are given here for 20 compounds.

The target of the first experiment is T1, GABAB receptor (Homo sapiens, UniProt O75899+Q9UBS5).
T1 construct: expressed in transfected cells
T1 sequence (Q9UBS5 15-961 limits assumed): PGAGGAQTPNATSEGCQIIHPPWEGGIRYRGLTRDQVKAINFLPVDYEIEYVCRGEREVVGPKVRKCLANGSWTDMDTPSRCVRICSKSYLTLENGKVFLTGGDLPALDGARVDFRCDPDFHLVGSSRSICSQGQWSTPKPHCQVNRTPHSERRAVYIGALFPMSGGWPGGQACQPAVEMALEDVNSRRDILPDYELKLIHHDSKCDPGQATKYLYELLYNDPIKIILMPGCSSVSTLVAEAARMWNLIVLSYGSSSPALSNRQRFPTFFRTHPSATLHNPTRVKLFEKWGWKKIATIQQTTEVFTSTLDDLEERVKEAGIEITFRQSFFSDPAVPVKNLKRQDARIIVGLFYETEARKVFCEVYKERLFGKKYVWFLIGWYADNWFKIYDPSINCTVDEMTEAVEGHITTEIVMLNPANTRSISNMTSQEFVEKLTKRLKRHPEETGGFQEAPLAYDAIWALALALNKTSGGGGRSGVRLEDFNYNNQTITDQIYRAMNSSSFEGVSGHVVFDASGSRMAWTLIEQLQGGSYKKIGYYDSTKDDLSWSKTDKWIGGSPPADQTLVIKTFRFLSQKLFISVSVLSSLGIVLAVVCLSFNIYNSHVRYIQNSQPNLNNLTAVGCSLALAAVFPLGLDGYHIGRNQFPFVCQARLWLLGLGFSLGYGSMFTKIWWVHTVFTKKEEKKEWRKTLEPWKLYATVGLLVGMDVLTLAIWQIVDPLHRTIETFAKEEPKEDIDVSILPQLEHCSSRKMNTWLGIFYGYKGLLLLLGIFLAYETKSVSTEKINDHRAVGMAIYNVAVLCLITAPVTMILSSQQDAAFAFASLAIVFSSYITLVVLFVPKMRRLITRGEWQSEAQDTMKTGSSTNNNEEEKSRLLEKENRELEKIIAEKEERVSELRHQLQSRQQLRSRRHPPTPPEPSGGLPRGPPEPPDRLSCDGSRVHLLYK
T1 sequence (O75899 42-941): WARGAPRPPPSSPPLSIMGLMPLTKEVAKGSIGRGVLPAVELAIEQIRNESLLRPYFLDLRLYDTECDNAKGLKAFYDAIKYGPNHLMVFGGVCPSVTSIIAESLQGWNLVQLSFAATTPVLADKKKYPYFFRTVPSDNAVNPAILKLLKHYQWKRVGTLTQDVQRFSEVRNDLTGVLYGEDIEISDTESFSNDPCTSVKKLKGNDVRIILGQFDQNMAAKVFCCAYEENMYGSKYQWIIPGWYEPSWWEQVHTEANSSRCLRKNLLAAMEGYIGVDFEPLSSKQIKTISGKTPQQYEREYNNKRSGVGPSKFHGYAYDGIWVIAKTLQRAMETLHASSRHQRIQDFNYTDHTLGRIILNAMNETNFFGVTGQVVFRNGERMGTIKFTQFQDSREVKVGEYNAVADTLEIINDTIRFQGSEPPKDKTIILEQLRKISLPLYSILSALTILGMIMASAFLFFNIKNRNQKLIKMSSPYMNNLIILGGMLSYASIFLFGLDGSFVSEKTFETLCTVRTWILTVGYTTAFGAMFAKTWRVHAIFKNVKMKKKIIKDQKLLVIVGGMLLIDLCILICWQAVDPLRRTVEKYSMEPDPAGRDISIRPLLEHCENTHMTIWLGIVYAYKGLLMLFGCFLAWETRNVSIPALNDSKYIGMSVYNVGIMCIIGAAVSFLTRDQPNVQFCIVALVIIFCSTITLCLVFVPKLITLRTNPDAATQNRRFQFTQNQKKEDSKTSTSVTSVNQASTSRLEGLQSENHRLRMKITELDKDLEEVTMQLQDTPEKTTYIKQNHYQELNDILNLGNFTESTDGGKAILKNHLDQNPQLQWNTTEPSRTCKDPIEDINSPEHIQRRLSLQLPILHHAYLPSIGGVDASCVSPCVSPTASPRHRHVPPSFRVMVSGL
Nature of the experiment: [35S]-GTPγS binding assay, potency of PAM on the GABA dose-response. Type of experiment: biochemical. The conditions noted are these: membranes from CHO cell lines expressing GABAB receptor; GABA in presence or absence of PAM. The text has this:
GABABR1a and GABABR2 were cloned from human brain cDNA and subcloned into pCI-Neo (Promega) and pALTER-1(Promega), respectively. A GABABR1a-Gαqi5 fusion protein expression vector was constructed using the pCI-Neo-GABABR1a cDNA plasmid and pLEC1-Gαqi5 (Molecular Devices, Calif.). In order to make the Gαqi5 pertussis toxin insensitive, Cys356 was mutated to Gly using standard PCR methodology with the primers 5′-[…]-3′ (forward) and 5′-GCGGCCG […]-3′ (reverse). The Gαqi5mut cDNA was ligated into the BamHI and NotI sites of pcDNA3.0 (Invitrogen). The GABAB R1a coding sequence was amplified by PCR from pCI-Neo-GABABR1a using the primers, 5′-[…]-3′ (forward) and 5′-[…]-3′ (reverse) and subcloned into the BamHI site of pcDNA3.0-Gαqis5mut.
For generation of a cell line expressing the GABABR1a/GABABR2 heterodimer, GABABR1a plasmid DNA (4 μg) GABABR2 plasmid DNA (4 μg) and lipofectamine (24 μl) were mixed in 5 ml OptiMEM and incubated for 45 minutes at room temperature. The cells were exposed to the transfection medium for 5 hours, which then was replaced with culture medium. The cells were cultured for an additional 10 days before selection agents (300 μg/ml hygromycin and 400 μg/ml geneticin) were added. Twenty-four days after transfection, single cell sorting into 96-well plates by flow cytometry was performed using a FACS Vantage SE (Becton Dickinson, Palo Alto, Calif.), After expansion, the GABAB receptor functional response was tested using the FLIPR assay described below. The clone with the highest functional response was collected, expanded and then subcloned by single cell sorting. The clonal cell line with the highest peak response in the FLIPR was used in the present study.
For generation of a stable cell line expressing GABABR1a-Gαqi5 fusion protein and GABABR2, GABABR1a-Gαqi5mut plasmid DNA (8 μg) GABABR2 plasmid DNA (8 μg) and lipofectamine (24 μl) were mixed in 5 ml OptiMEM and incubated for 45 minutes at room temperature. The cells were exposed to the transfection medium for 5 hours, which then was replaced with culture medium. After forty-eight hours, the cells were detached and seeded in 6 well plates (2000 cells well) and grown in culture medium supplemented with geneticin (400 μg/ml) and zeocin (250 μg/ml). After 4 days, cells from single colonies were collected and transferred to a 24-well plate. After 10 days, the cell clones were seeded in T-25 flasks and grown for another 16 days before they were tested for GABAB receptor mediated functional response. […] The clonal cell line that gave the highest peak response in the FLIPR was used in the present study.
[^35S]-GTPγS binding assays were performed at 30° C. for 45 min in membrane buffer (100 mM NaCl, […], 1 mM EDTA, 50 mM HEPES, pH 7.4) containing 0.025 μg/μl of membrane protein (prepared from the cell lines described above) with 0.01% bovine serum albumin (fatty acid free): 10 μM GDP, 100 μM DTT and 0.53 nM [^35S]-GTPγS (Amersham-Pharmacia Biotech) in a final volume of 200 μl. Non-specific binding was determined in the presence of 20 μM GTPγS. The reaction was started by the addition of GABA at concentration between 1 mM and 0.1 nM in the presence or absence of the required concentration of PAM. The reaction was terminated by addition of ice-cold wash buffer (50 mM Tris-HCl, 5 mM MgCl2, 50 mM NaCl, pH 7.4) followed by rapid filtration under vacuum through Printed Filtermat A glass fiber filters (Wallac) (0.05% PEI treated) using a Micro 96 Harvester (Skatron Instruments). The filters were dried for 30 min at 50° C., then a paraffin scintillant pad was melted onto the filters and the bound radioactivity was determined using a 1450 Microbeta Trilux (Wallac) scintillation counter.
GABA dose-response curves in the presence and absence of test compounds were constructed using the 4-parameter logistic equation, y=ymax+((ymin−ymax)/1+(x/C)^D), where C=EC50 and D=slope factor.
(In general: GTPγS is a poorly hydrolysed GTP analogue; its binding reports G protein activation.)
Take `COc1nc(NC(=O)c2scc(S(=O)(=O)C(C)C)c2Cl)c(C(=O)OC(C)(C)C)n1-c1ccc(F)cc1` [Example 1, Tert-butyl 4-({[3-chloro-4-(isopropylsulfonyl)-2-thienyl]carbonyl}amino)-1-(4-fluorophenyl)-2-methoxy-1H-imidazole-5-carboxylate]: the IC50 (commonly the concentration at which inhibition is half-maximal) stood at 4000 nM.

In the case of `COc1nc(NC(=O)c2ccc(Cl)cc2)c(C(=O)OC(C)(C)C)n1-c1ccc(F)cc1` [Example 2, Tert-butyl 4-[(4-chlorobenzoyl)amino]-1-(4-fluorophenyl)-2-methoxy-1H-imidazole-5-carboxylate], the concentration for half-maximal inhibition (IC50) worked out at 3100 nM. This IC50 and that of the compound before are within 1.5-fold of each other.

The compound `COc1nc(NC(=O)C2COc3ccccc3O2)c(C(=O)OC(C)(C)C)n1-c1ccc(F)cc1` (stereo not shown) [Example 3, Tert-butyl 4-[(2,3-dihydro-1,4-benzodioxin-2-ylcarbonyl)amino]-1-(4-fluorophenyl)-2-methoxy-1H-imidazole-5-carboxylate] displayed a half-maximal inhibitory concentration (IC50) of 1500 nM.

Take `COc1nc(NC(=O)C2(c3ccc(Cl)cc3)CCCC2)c(C(=O)OC(C)(C)C)n1-c1ccc(F)cc1` [Example 4, Tert-butyl 4-({[1-(4-chlorophenyl)cyclopentyl]carbonyl}amino)-1-(4-fluorophenyl)-2-methoxy-1H-imidazole-5-carboxylate]: the IC50 was found to be 1400 nM.

`COc1nc(NC(=O)C(OC)(c2ccccc2)C(F)(F)F)c(C(=O)OC(C)(C)C)n1-c1ccc(F)cc1` (stereo not shown) [Example 5, Tert-butyl 1-(4-fluorophenyl)-2-methoxy4-[(3,3,3-trifluoro-2-methoxy-2-phenylpropanoyl)amino]-1H-imidazole-5-carboxylate] returned a concentration for half-maximal inhibition (IC50) of 6200 nM.

Compound `COc1nc(NC(=O)c2cnn(-c3ccc(Cl)cc3)c2C(F)(F)F)c(C(=O)OC(C)(C)C)n1-c1ccc(F)cc1` [Example 6, Tert-butyl 4-({[1-(4-chlorophenyl)-5-(trifluoromethyl)-1H-pyrazol-4-yl]carbonyl}amino)-1-(4-fluorophenyl)-2-methoxy-1H-imidazole-5-carboxylate] showed an IC50 of 1600 nM.

Consider `COc1nc(NC(=O)c2ccc(Oc3ccccc3)nc2)c(C(=O)OC(C)(C)C)n1-c1ccc(F)cc1` [Example 7, Tert-butyl 1-(4-fluorophenyl)-2-methoxy-4-{[(6-phenoxypyridin-3-yl)carbonyl]amino}-1H-imidazole-5-carboxylate], for which the IC50 came out at 1600 nM.

Turning to `COc1nc(NC(=O)c2c(F)cc(F)cc2F)c(C(=O)OC(C)(C)C)n1-c1ccc(F)cc1` [Example 8, Tert-butyl 1-(4-fluorophenyl)-2-methoxy-4-[(2,4,6-trifluorobenzoyl)amino]-1H-imidazole-5-carboxylate], the IC50 was found to be 810 nM.

For `COc1nc(NC(=O)c2ccc(Cl)cc2Cl)c(C(=O)OC(C)(C)C)n1-c1ccc(F)cc1` [Example 9, Tert-butyl 4-[(2,4-dichlorobenzoyl)amino]-1-(4-fluorophenyl)-2-methoxy-1H-imidazole-5-carboxylate], the 50% inhibitory concentration (IC50) came to 2160 nM.

As to `COCCOCC(C)(C)OC(=O)c1c(NC(=O)c2ccc(Cl)cc2Cl)nc(OC)n1-c1ccc(F)cc1` [Example 10, 2-(2-methoxyethoxy)-1,1-dimethylethyl 4-[(2,4-dichlorobenzoyl)amino]-1-(4-fluorophenyl)-2-methoxy-1H-imidazole-5-carboxylate], the IC50 worked out at 1500 nM.

With `COc1nc(NC(=O)c2ccc(Cl)cc2Cl)c(C(=O)OC(C)(C)COCC(F)(F)F)n1-c1ccc(F)cc1` [Example 11, 1,1-dimethyl-2-(2,2,2-trifluoroethoxy)ethyl 4-[(2,4-dichlorobenzoyl)amino]-1-(4-fluorophenyl)-2-methoxy-1H-imidazole-5-carboxylate], the 50% inhibitory concentration (IC50) came out at 1100 nM.

In the case of `COc1nc(NC(=O)c2ccc(Cl)cc2Cl)c(C(=O)OC(C)(C)COc2ccccc2)n1-c1ccc(F)cc1` [Example 12, 1,1-dimethyl-2-phenoxyethyl 4-[(2,4-dichlorobenzoyl)amino]-1-(4-fluorophenyl)-2-methoxy-1H-imidazole-5-carboxylate], the half-inhibitory concentration (IC50) was determined as 960 nM.

For the compound `CCOC(=O)C1(OC(=O)c2c(NC(=O)c3ccc(Cl)cc3Cl)nc(OC)n2-c2ccc(F)cc2)CC1` [Example 13, 1-(ethoxycarbonyl)cyclopropyl 4-[(2,4-dichlorobenzoyl)amino]-1-(4-fluorophenyl)-2-methoxy-1H-imidazole-5-carboxylate], the concentration for half-maximal inhibition (IC50) is 2000 nM.

`CCC1(C)CCC(C(C)(C)OC(=O)c2c(NC(=O)c3ccc(Cl)cc3Cl)nc(OC)n2-c2ccc(F)cc2)O1` (stereo not shown) [Example 14, 1-(5-ethyl-5-methyltetrahydrofuran-2-yl)-1-methylethyl 4-[(2,4-dichlorobenzoyl)amino]-1-(4-fluorophenyl)-2-methoxy-1H-imidazole-5-carboxylate] displayed an IC50 of 2100 nM. This IC50 and that of the compound before are within 1.5-fold of each other.

In turn, `COCC(C)(C)OC(=O)c1c(NC(=O)C2COc3ccccc3O2)nc(OC)n1-c1ccc2c(c1)OCO2` (stereo not shown) [Example 15, 2-methoxy-1,1-dimethylethyl 1-(1,3-benzodioxol-5-yl)-4-[(2,3-dihydro-1,4-benzodioxin-2-ylcarbonyl)amino]-2-methoxy-1H-imidazole-5-carboxylate] registered an IC50 of 1400 nM.

As for `COCC(C)(C)OC(=O)c1c(NC(=O)c2ccc(Cl)cc2)nc(OC)n1-c1ccc2c(c1)OCO2` [Example 16, 2-methoxy-1,1-dimethylethyl 1-(1,3-benzodioxol-5-yl)-4-[(4-chlorobenzoyl)amino]-2-methoxy-1H-imidazole-5-carboxylate], the concentration for half-maximal inhibition (IC50) amounted to 1200 nM.

The compound `COCC(C)(C)OC(=O)c1c(NC(=O)COCc2ccccc2)nc(OC)n1-c1ccc2c(c1)OCO2` [Example 17, 2-methoxy-1,1-dimethylethyl 1-(1,3-benzodioxol-5-yl)-4-{[(benzyloxy)acetyl]amino}-2-methoxy-1H-imidazole-5-carboxylate] registered a concentration for half-maximal inhibition (IC50) of 3400 nM. Against the preceding compound, the IC50 is about 2.8-fold higher.

`COCC(C)(C)OC(=O)c1c(NC(=O)c2ccc(Cl)cc2Cl)nc(OC)n1-c1cccc(OC)c1` [Example 18, 2-methoxy-1,1-dimethylethyl 4-[(2,4-dichlorobenzoyl)amino]-2-methoxy-1-(3-methoxyphenyl)-1H-imidazole-5-carboxylate] displayed an IC50 of 1300 nM. Compared with the last compound, the IC50 is about 2.6-fold lower.

`CCc1nc(NC(=O)c2ccc(N=[N+]=[N-])cc2)c(C(=O)OC(C)(C)C)n1-c1ccc(F)cc1` [Example 19, Tert-butyl 4-[(4-azidobenzoyl)amino]-2-ethyl-1-(4-fluorophenyl)-1H-imidazole-5-carboxylate] came in with a 50% inhibitory concentration (IC50) of 1100 nM.

The compound `CCc1nc(NC(=O)c2ccc(Cl)cc2Cl)c(C(=O)OC(C)(C)C)n1-c1ccc(F)cc1` [Example 20, Tert-butyl 4-[(2,4-dichlorobenzoyl)amino]-2-ethyl-1-(4-fluorophenyl)-1H-imidazole-5-carboxylate] had a concentration for half-maximal inhibition (IC50) of 3700 nM.

Still in this experiment, the particulars now being: potency of PAM in GTPγS assays.
With `COc1nc(NC(=O)c2ccc(Cl)cc2Cl)c(C(=O)OC(C)(C)C)n1-c1ccc(F)cc1` [Example 9, Tert-butyl 4-[(2,4-dichlorobenzoyl)amino]-1-(4-fluorophenyl)-2-methoxy-1H-imidazole-5-carboxylate], the 50% effective concentration (EC50) (in general, the concentration needed to bring the measured effect to its halfway point) came out at 2160 nM. In other words, the single-digit micromolar range.

`COc1nc(NC(=O)c2ccc(Cl)cc2Cl)c(C(=O)OC(C)(C)COc2ccccc2)n1-c1ccc(F)cc1` [Example 12, 1,1-dimethyl-2-phenoxyethyl 4-[(2,4-dichlorobenzoyl)amino]-1-(4-fluorophenyl)-2-methoxy-1H-imidazole-5-carboxylate] displayed a concentration for a half-maximal effect (EC50) of 960 nM.
